Measurements as given in patent publication US9168269B2, “Inhibitors of long and very long chain fatty acid metabolism as broad spectrum anti-virals” (THE TRUSTEES OF PRINCETON UNIVERSITY, priority 2010, dated 2015).
Where two headings read alike, the source gives them in different places.

Legend:
HCMV AD169 strain = experiment: microbe, parasite or virus in culture; assay type: cell-based, human cytomegalovirus; settings: for reduction of HCMV viral yield: 96 h post infection; for effect on HCMV replication / yield, in words: concentrations as in the sentence or figure; for decrease in HCMV virus titer: 96 h after infection
late viral protein pUL99 = experiment: HCMV late viral protein expression (pUL99-GFP); assay type: cell-based, human cytomegalovirus
hELOVL3 = hELOVL3 (Homo sapiens, UniProt Q9HB03); settings: in vitro; cited from earlier work
ELOVL6 = settings: 'in vivo' as printed; cited from earlier work
ELOVL3 = settings: 'in vivo' as printed; cited from earlier work
MRCS human fibroblasts [1] = experiment: host cell viability, morphology and toxicity in fibroblasts; settings: for toxicity on the cells: at the antiviral doses tested; for appearance of cells: 96 h
Experimental: (§1) Top panels: About 90% confluent MRCS human fibroblasts were treated with the indicated concentrations of triacsin C or the carrier in which the drug was dissolved (DMSO) in the presence of 10% fetal calf serum and photographed 96 h later. Bottom left panel: About 90% confluent MRCS fibroblasts were either mock infected or infected with the AD169 strain of HCMV at a multiplicity of (0.1 pfu/cell). The uninfected or infected cells received DMSO (solvent for the drug) or the drug for 96 h before cells were assayed for viability. Bottom right panel: About 90% confluent MRCS fibroblasts were infected with HCMV at a multiplicity of (0.1 pfu/cell) in the presence of DMSO (0 nM triacsin C) or triacsin C at the indicated concentrations. Infected fibroblasts were maintained in medium containing 10% fetal calf serum. Virus yield in the medium at 96 h after infection was determined by infecting fibrobalsts and assaying IE1 expression by immunofluorescence 24 h later. 96 h after infection, cells were harvested into culture medium and sonicated to release cell-associated virus. Virus yield in the medium was determined by infecting fibroblasts and assaying IE1 expression by immunofluorescence 24 h later.
(§2) The effect of triacsin C on the viability of MRCS human fibroblasts in culture medium containing 10% fetal calf serum was tested. At the time drug was added, cells were about 90% confluent.

adenovirus type 5 = experiment: adenovirus replication in fibroblasts; assay type: cell-based; settings: for decrease in adenovirus replication / titer: MOI 1, 72 h; for effect on adenovirus replication, in words: indicated amounts of drug
ACAT = settings: cited from earlier work
Liquid Droplet = settings: read-out: Liquid Droplet inhibition IC50; cited from earlier work
Liver ACAT = settings: cited from earlier work
[2] = mice, oral, 10 mg/kg, 2 hours after treatment; cited from earlier work
[3] = test system: lipid droplets in HCMV infected cells; experiment: lipid droplets by oil red O staining; assay type: cell-based, human
Source text: A pair of related enzymes that are both required for HCMV replication are ADP-ribosyltransferase 1 and 3 (ART1 and ART3). Inhibition of either of these enzymes led to a marked reduction in HCMV replication, ˜40-fold for ART1 and ˜10-fold for ART3. Without being bound by any particular mechanism, although ADP-ribosyltransfer is not per se a reaction of lipid metabolism, ADP ribosylation plays a key role in regulating lipid storage via targets including the protein CtBP1/BARS. Mono-ADP ribosylation of this protein results in loss of lipid droplets due to a dramatic efflux of fatty acids.
Thus host cell components involved in lipid droplet production and consumption provide antiviral targets. In addition to siRNA against the relevant cellular machinery, other means of inhibiting lipid droplet formation include the compounds spylidone, PF-1052 (a fungal natural product isolated from Phoma species), vermisporin, beauveriolides, phenochalasins, isobisvertinol, K97-0239, and rubimaillin.
Lipid droplet formation and depletion is associated with HCMV infection. At early phase of infection (2-12 hours after infection) lipid droplets are induced within the infected cells and thereafter, a complete loss of lipid droplets is observed (48-72 hours after infection).

HSV-1 = HSV-1 replication in fibroblasts; assay type: cell-based, herpes simplex virus type 1; settings: for effect on HSV-1 growth, in words: indicated amounts of drug
[4] = test system: influenza A strain WSN/33; experiment: influenza A replication in fibroblasts; assay type: cell-based; settings: for effect on influenza A growth, in words: indicated amounts of drug
[5] = test system: HCV JFH1 strain derivative; experiment: release of infectious HCV from Huh7.5 cells, TCID50 assay
Experimental: Huh7.5 cells were infected with a derivative of HCV JFH1 strain (MOI=0.1 TCID50/cell). Infected cells were maintained in medium containing 10% fetal calf serum plus DMSO (0 nM triacsin C) or triacsin C at the indicated concentrations. Media were harvested at 72 h and infectious virus was quantified by standard TCID50 assay on Huh7.5 cells.
Virus yield in the medium at 72 h after infection was determined.
Huh7.5 cells were infected a derivative of HCV JFH1 strain (MOI=0.1 TCID50/cell) Infected cells were maintained in medium containing 10% fetal calf serum plus DMSO (0 μg/ml TOFA) or TOFA at the indicated doses. Media were harvested at 72 h and infectious virus was quantified by standard TCID50 assay on Huh7.5 cells.
Huh7.5 cells which was infected with HCV and treated with indicated amounts of TOFA (FIG. 21).

MRCS human fibroblasts [6] = test system: MRCS human fibroblasts
Experimental: as §1, §2

hELOVL6 = biological target: T1, hELOVL6 (Homo sapiens, UniProt Q9H5J4); settings: in vitro, cited from earlier work
T1 sequence (Q9H5J4 1-265): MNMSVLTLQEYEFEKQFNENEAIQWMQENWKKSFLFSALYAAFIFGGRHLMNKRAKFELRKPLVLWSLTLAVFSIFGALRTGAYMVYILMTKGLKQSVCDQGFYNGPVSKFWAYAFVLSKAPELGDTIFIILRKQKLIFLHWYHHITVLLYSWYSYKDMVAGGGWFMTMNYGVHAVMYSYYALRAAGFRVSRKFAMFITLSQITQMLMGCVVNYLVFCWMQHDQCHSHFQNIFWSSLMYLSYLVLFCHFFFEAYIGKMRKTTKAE

[7] = test system: triacylglycerol (TG) synthesis; settings: cited from earlier work
[8] = test system: cholesterol ester (CE) synthesis; settings: cited from earlier work
ACSLs = settings: rat liver cell sonicates; cited from earlier work
atherosclerosis = settings: oral, 10 mg/kg/day, two months, cited from earlier work
HCMV = experiment: siRNA screen, infectious yield of HCMV; settings: enzyme knockdown by siRNA; fibroblasts, HCMV 0.1 pfu/cell, 96 h
Experimental: To identify host cell enzymes whose inhibition could decrease the production of virus progeny, an siRNA screen was performed to test for roles of specific enzymes involved directly or indirectly in lipid metabolism. The siRNA screen was designed to test for effects of inhibiting specific siRNA targets on the infectious yield of HCMV. The screen was performed in 96-well plates using a portion of an siRNA library purchased from Sigma. Each target was assayed with three different siRNAs.
Also at 96 h after infection, the medium was removed from each well and used to infect fibroblasts in a new 96-well plate, and infectivity was quantified by staining for immunofluorescence and counting IE1-positive cells 24 h later.

hELOVL3, sequence (Q9HB03 whole entry): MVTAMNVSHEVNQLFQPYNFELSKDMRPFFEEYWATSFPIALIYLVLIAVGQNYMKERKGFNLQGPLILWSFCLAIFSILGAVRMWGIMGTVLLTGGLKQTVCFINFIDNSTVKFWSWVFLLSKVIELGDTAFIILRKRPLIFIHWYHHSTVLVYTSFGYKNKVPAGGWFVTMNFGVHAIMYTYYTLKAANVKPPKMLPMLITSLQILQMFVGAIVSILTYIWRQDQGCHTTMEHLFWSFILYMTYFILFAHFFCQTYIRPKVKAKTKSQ
Experimental for MDCK cells: Bottom panel: Approximately 90% confluent MDCK cells were infected with WSN/33 at a multiplicity of (0.001 pfu/cell) in the presence of PBS (0 mM) or AOAA at the indicated concentrations. Virus yield in the medium at indicated times after infection was determined by standard plaque assay on MDCK cells.
Replication of influenza A (WSN/33 strain) was measured in MDCK cells at a multiplicity of infection of 0.001 particle forming unit per cell.

## O=C1Nc2ccc(-c3ccn[nH]3)cc2[C@](CNC(=O)c2ccc(F)cc2)(C(F)(F)F)O1 [(S)-1y]
HCMV AD169 strain; 25 μM
  inhibition of HCMV replication: ~40 fold
HCMV AD169 strain; 50 μM
  inhibition of HCMV replication: > 1000 fold
Late viral protein pUL99
  HCMV late pUL99 expression, in words: dramatically reduced
hELOVL3
  IC50: ~0.13 µM
ELOVL6
  IC50: 0.169 µM
ELOVL3
  IC50: > 5 µM
MRCS human fibroblasts [1]
  toxicity on the cells: Without inducing any toxicity

## NOCC(=O)O [AOAA, aminooxyacetic acid]
HCMV AD169 strain; 0.5 mM
  decrease in HCMV replication: 100 fold
Adenovirus type 5; 0.5 mM
  decrease in adenovirus replication / titer: 20 fold
Adenovirus type 5; 1 mM
  decrease in adenovirus replication / titer: 500 fold
MDCK cells
  host cell toxicity by light microscopy: no evidence of host cell toxicity

## CC(C)c1cc(C(C)C)c(CC(=O)NS(=O)(=O)Oc2c(C(C)C)cccc2C(C)C)c(C(C)C)c1 [Avasimibe]
ACAT
  IC50: 0.479 µM

## CCCCCCCN(Cc1ccc(CCC(C)C)cc1)C(=O)Nc1c(F)cc(F)cc1F [CL-283,546]
Liquid Droplet
  IC50: 0.035 µM

## COc1cccc(C2(CNC(=O)Nc3c(C(C)C)cc(N)cc3C(C)C)CCN(c3ccccc3C)CC2)c1 [Compound 12g]
ACAT
  IC50: 0.068 µM

## Cc1cc(NC(=O)[C@@H]2Cc3ccc(N(C)C)cc3CN2C(=O)C(C)C)c(C)c(C)c1O [Compound 21]
Liver ACAT
  IC50: 0.113 µM

## Cc1[nH]n(-c2ccc(OC(F)(F)F)cc2)c(=O)c1C1(C(F)(F)F)C(=O)N(c2ccccc2)C2=C1C(=O)CC(C)(C)C2 (centres unmarked) [Compound 37]
HCMV AD169 strain; 35 μM
  inhibition of HCMV replication: > 10 fold
HCMV AD169 strain; 70 μM
  HCMV virus yield: undetectable levels
Late viral protein pUL99
  HCMV late pUL99 expression, in words: substantially reduced
hELOVL3
  IC50: ~0.337 µM
[2]
  liver level: 50 µM
  plasma level: 30 µM
MRCS human fibroblasts [1]
  toxicity on the cells: Without inducing any toxicity

## N=C(N)NCc1cccc([131I])c1 [MIBG, meta-iodo-benzylguanidine]
HCMV AD169 strain; 100 μM, fibroblasts
  inhibition of HCMV replication: 13 fold
[3]; 100 μM
  HCMV-induced accumulation and depletion of lipid droplets: blocked

## CCC(C)[C@@H]1C(=O)/C(=C(/O)[C@@H]2[C@@H]3[C@H](C)C[C@H](C)C[C@@H]3C=C[C@@H]2[C@]2(C)O[C@H]2C)C(=O)N1C (some centres unmarked) [PF-1052]
HCMV AD169 strain; 5 μM
  reduction of HCMV viral yield: > 50 fold
HCMV AD169 strain; 5 μM, medium replaced daily, 10 days after infection
  reduction of HCMV yield, prolonged treatment: > 5000 fold
HCMV AD169 strain; 10 μM
  reduction of HCMV viral yield: > 300 fold
HCMV AD169 strain
  effect on HCMV replication / yield, in words: profoundly inhibits
HSV-1
  effect on HSV-1 growth, in words: substantially inhibited
[4]
  effect on influenza A growth, in words: substantially inhibited
Adenovirus type 5
  effect on adenovirus replication, in words: not and not inhibited
Late viral protein pUL99
  HCMV late pUL99 expression, in words: markedly reduced
Late viral protein pUL99; Human betaherpesvirus 5, 10 μM, read-out: inhibition of HCMV late protein synthesis
  inhibition at 10 µM: > 99%
[5]; 5 μM
  inhibition of release of infectious HCV particles: 10 fold
[5]; 10 μM
  inhibition of release of infectious HCV particles: > 100 fold
MRCS human fibroblasts [1]; 5 and 10 μM
  host cell toxicity by light microscopy: no evidence of host cell toxicity

## CCCCCCCCN1CCc2c(C)c(CC(=O)O)c(C)c(NC(=O)C(C)(C)C)c21 [Pactimibe]
Liver ACAT
  IC50: 0.312 µM

## CCCCn1c(=O)c(NC(=O)Nc2c(C(C)C)cc(N)cc2C(C)C)c(-c2cccc(OCCCO)c2)c2cccnc21 [SMP-797]
ACAT
  IC50: 0.031 µM

## CC(C)=CCc1c([C@H](O)C2OC2(C)C)ccc2[nH]c3c(c12)C[C@@H]1CC[C@@]2(O)C(C)(C)C(=O)CC[C@]2(C)[C@@]31C (some centres unmarked) [Sespendole]
Liquid Droplet
  IC50: 4 µM

## CCC(C)[C@@H]1C(=O)C2(C[C@@H]3[C@@H]4[C@H](C)C[C@H](C)C[C@@H]4C=C[C@@H]3[C@](C)(O)[C@H]2C)C(=O)N1C (some centres unmarked) [Spylidone]
Liquid Droplet
  IC50: 42 µM

## CC(C)=C[C@H]1O[C@H]2[C@H]3O[C@@]34[C@H](CC[C@@]3(C)[C@@]4(O)CC[C@H]4Cc5c([nH]c6ccccc56)[C@@]43C)O[C@@H]2C(C)(C)O1 [Terpendole C]
Liquid Droplet
  IC50: 2.5 µM

## CC(=O)Nc1nnc(S(N)(=O)=O)s1 [acetazolamide]
HCMV AD169 strain; Human betaherpesvirus 5, AD169, Fibroblast, read-out: inhibition of HCMV replication
  inhibition at 25 µM: ~80%

## O=C(Nc1ccc(C(F)(F)F)cc1)N1C2CCC1CC(S(=O)(=O)c1ccccc1)C2 (stereo not drawn) [endo-1k]
HCMV AD169 strain; 50 μM
  inhibition of HCMV replication: ~400 fold
Late viral protein pUL99
  HCMV late pUL99 expression, in words: dramatically reduced
MRCS human fibroblasts [6]
  toxicity on the cells: Without inducing any toxicity
hELOVL6; read-out: hELOVL6 IC50
  IC50: ~0.078 µM

## O=C(Nc1ccc(C(F)(F)F)cc1)N1C2CCC1CC(S(=O)(=O)c1ccccn1)C2 (stereo not drawn) [endo-1w]
hELOVL6; read-out: hELOVL6 IC50
  IC50: ~0.078 µM
hELOVL6; read-out: human ELOVL6 IC50
  IC50: ~6.9 µM

## COC(=O)c1c2c(c3ccccc3c1O)OC(C)(C)C=C2 [rubimaillin]
HCMV AD169 strain; 5 μM
  decrease in HCMV virus titer: approximately 85%
HCMV AD169 strain; 10 μM
  reduction of HCMV replication: > 80%

## CCC(C)(C)C(=O)O[C@H]1C[C@@H](C)C=C2C=C[C@H](C)[C@H](CC[C@@H]3C[C@@H](O)CC(=O)O3)[C@H]21 [simvastatin]
HCMV AD169 strain; 5 μM
  decrease in HCMV virus titer: approximately 90%

## CCC/C=C/C/C=C/C=C/C=N/NN=O [triacsin C]
HCMV AD169 strain; 50 nM, presence of serum
  reduction of yield of infectious HCMV: > 8 fold
HCMV AD169 strain; 250 nM, added with virus, 96 h, 10% serum
  reduction of yield of infectious HCMV, factor: 85
HCMV AD169 strain
  effect on HCMV replication / yield, in words: substantially inhibited
HCMV AD169 strain; nanomolar concentrations
  inhibition of HCMV replication: > 10 fold
HSV-1
  effect on HSV-1 growth, in words: substantially inhibited
HSV-1; nanomolar concentrations
  inhibition of HSV-1 replication: > 10 fold
[4]
  effect on influenza A growth, in words: substantially inhibited
[4]; nanomolar concentrations
  inhibition of influenza A replication: > 10 fold
Adenovirus type 5
  effect on adenovirus replication, in words: not
[3]; 100 nM
  depletion of lipid droplets: > 90%
[3]; 250 nM
  lipid droplets by oil red O staining: no detectable lipid droplets
[3]; HFF cells
  lipid droplet formation induced by HCMV infection: reduced lipid droplet formation
[7]
  IC50: 0.1 µM
[8]
  IC50: 0.19 µM
ACSLs
  IC50: ~8.7 µM
atherosclerosis; LDLR-/- mice
  progression of atherosclerosis: significantly inhibited
atherosclerosis; mice
  toxicities: no significant toxicities noted
[5]; indicated amounts of drug, 72 h
  release of infectious HCV particles, in words: significantly reduced
MRCS human fibroblasts [1]; 50 nM, presence of serum
  viability of MRC-5 fibroblasts: without discrenably impacting
MRCS human fibroblasts [1]; 100 or 250 nM, 10% fetal calf serum
  appearance of cells: did not alter the appearance of cells
MRCS human fibroblasts [1]; absence of fetal calf serum, doses up to 10 μM
  cell viability: no discernable impact
MRCS human fibroblasts [1]; doses of ≦500 nM, 10% fetal calf serum
  cell viability: little effect
MRCS human fibroblasts [1]; ≦500 nM, 10% fetal calf serum
  appearance of cells: some cell rounding

## CC(c1cc2ccccc2s1)N(O)C(N)=O (centres unmarked) [zileuton]
HCMV AD169 strain; 100 μM
  reduction of HCMV replication: ~90%

## STX6 (sense CAAGUUGUCAGGGACAUGATT; antisense UCAUGUCCCUGACAACUUGTT; chemistry not given here)
HCMV
  Fold reduction of HCMV replication: 1.92 fold

## STX8 (sense GACUACUUCUGGCAUCCUUTT; antisense AAGGAUGCCAGAAGUAGUCTT; chemistry not given here)
HCMV
  Fold reduction of HCMV replication: 1.96 fold
